Data from US20130102009A1, “SIRTUIN ACTIVATORS AND ACTIVATION ASSAYS” (priority 2010, published 2013).
Several values for one entry are separate records, joined by “and”; a condition that tells them apart may be missing. Identical values can stand only once. Like-named read-outs stand apart in the source and are kept apart here.

Key:
[1] = target: T1, SIRT1 (Homo sapiens, UniProt Q96EB6); test: Fits of SIRT1 activation data (TAMRA-peptide) to kinetic models: Michaelis-Menten, eq (5), eq (9); assay type: biochemical; conditions: for Vmax,app: data of Milne et al. fit to Michaelis-Menten equation
T1 sequence (Q96EB6 1-747): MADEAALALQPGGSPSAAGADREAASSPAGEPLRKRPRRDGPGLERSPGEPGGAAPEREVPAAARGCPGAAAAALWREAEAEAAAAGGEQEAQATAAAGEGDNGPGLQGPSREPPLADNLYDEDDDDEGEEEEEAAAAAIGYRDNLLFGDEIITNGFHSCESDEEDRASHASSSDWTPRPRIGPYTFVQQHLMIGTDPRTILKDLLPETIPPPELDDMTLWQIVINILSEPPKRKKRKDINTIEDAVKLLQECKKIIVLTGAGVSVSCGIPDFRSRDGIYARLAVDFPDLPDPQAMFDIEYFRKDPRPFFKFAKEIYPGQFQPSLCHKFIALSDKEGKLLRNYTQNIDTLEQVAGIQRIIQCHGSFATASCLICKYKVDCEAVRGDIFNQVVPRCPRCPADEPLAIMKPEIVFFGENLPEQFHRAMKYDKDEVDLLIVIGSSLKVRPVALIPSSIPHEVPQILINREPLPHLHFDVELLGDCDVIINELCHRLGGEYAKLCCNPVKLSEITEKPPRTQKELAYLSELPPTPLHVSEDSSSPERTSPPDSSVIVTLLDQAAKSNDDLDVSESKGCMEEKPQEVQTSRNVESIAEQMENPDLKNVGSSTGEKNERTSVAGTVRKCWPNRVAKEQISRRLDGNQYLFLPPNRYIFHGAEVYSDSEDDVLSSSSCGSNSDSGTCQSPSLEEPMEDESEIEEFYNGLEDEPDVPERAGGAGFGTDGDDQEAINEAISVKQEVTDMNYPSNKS
Source text: The rate law for the mechanism of FIG. 2A can be derived starting with the expression of eq (4), which was derived using the rapid equilibrium assumption. To express the rate law in terms of total and free substrate, eq (4) can be […] show in eq (5). This derivation will be complete if we can express [S] in terms of [S]o, [X]o, and Kd. This starts with the definition of Kd, given in eq (6): The rate law for the mechanism of FIG. 2B can be derived using the rapid equilibrium assumption and is given in eq (9). […] To determine if the mechanism of FIG. 2A could accommodate such an activator, we fit the activation titration curve reported in Milne et al. ((2007) Nature 450, 712-716) to the expression of eq (5). This curve is reproduced in FIG. 7A. […] In this fitting, the following constraints were used: […] If the mechanism of FIG. 2A obtains for SRT1460, parameter estimates from the two types of experiment must be the same. […] Enzyme allostery can account for the activation of the SIRT1-Catalyzed deacetylation of TAMRA-Peptide by SRT1460 When the rate law for the allosteric mechanism of activation, is used to fit the data of FIG. 7B the following best-fit parameters are obtained: Kx=8.7±0.8 μM, β=0.26±0.02, and γ=1.48±0.04. The lines drawn using eq (9) and these parameters show an excellent fit to the data. These lines superimpose on those drawn from the individual fits and the parameter estimates of Table 5.

[2] = target: Ac-Arg-His-Lys-Lys^Ac-AMC; test: ITC binding of STACs to Ac-Arg-His-Lys-Lys^Ac-X, X=AMC; conditions: 10% DMSO for SRT1720, SRT2183 and 10, no cosolvent for SRT1460
Method: (§1) ITC experiments were performed using either a VP-ITC system or iTC200 system (MicroCal) at 26° C. in a buffer composed of 137 mM NaCl, 2.7 mM KCl, 1 mM MgCl2, 2 mM TCEP, 5% (v/v) glycerol and 50 mM HEPES-NaOH, pH 7.3. SIRT1(183-664) was purified and dialyzed against the buffer, centrifuged, and degassed before the experiment. The peptide and compounds were dissolved in the final dialysis buffer and their pH values were adjusted to match that of the protein solution. […] To characterize this interaction using the iTC200 system, 1 mM TAMRA-peptide was injected in 20 aliquots of 2 μL, (except the first injection, which was 0.5 μL) into a 0.202 mL sample cell containing 100 μM STAC. For STACs with poor solubility, the concentrations were adjusted accordingly. […] In all cases, data was corrected for the heat of dilution and fitted using a nonlinear least-squares routine using a single-site binding model with Origin for ITC v7.0383 (Microcal) with the stoichiometry (n), the enthalpy of the reaction (ΔH) and the association constant (Ka) calculated. Table 2 summarizes Kd values for the binding of STACs to […]. Note that except for SRT1460, the solubility of the compounds required that these ITC experiments be done in solutions containing 10% DMSO.

[3] = target: Ac-Arg-His-Lys-Lys^Ac-NH2; test: ITC binding of STACs to Ac-Arg-His-Lys-Lys^Ac-X, X=NH2; conditions: 10% DMSO for SRT1720, SRT2183 and 10, no cosolvent for SRT1460
Method: as §1

| SMILES | γ, best fit of activator titration curve to eq (5) (indirect mechanism of FIG. 2A) ([1]; [S]o and Km constrained) | Kd [2] [µM] | Kd [3] [µM] | γ, global fit of velocity vs substrate data at fixed activator concentrations (FIG. 7B) to eq (5) ([1]; Kd assigned 140 μM, data of Milne et al.) | Km ([1]; Kd assigned 140 μM, data of Milne et al., read-out: Km,x, global fit of velocity vs substrate data at fixed activator concentrations (FIG. 7B) to eq (5)) [µM] | Km ([1]; Kd, [S]o and Km constrained, read-out: Km,x, best fit of activator titration curve to eq (5) (indirect mechanism of FIG. 2A)) [µM] | Vmax,app ([1]; [SRT1460] 3 μM) [units] | Vmax,app ([1]; [SRT1460] 11 μM) [units] | Vmax,app ([1]; [SRT1460] 37 μM) [units] | Km ([1]; [S]o and Km constrained, read-out: Km,x, best fit of activator titration curve to eq (5) (indirect mechanism of FIG. 2A)) [µM] | Kx, best fit of FIG. 7B data to allosteric rate law eq (9) ([1]; data of Milne et al.) [µM] | β, best fit of FIG. 7B data to allosteric rate law eq (9) ([1]; data of Milne et al.) | γ, best fit of FIG. 7B data to allosteric rate law eq (9) ([1]; data of Milne et al.) |
| --- | --- | --- | --- | --- | --- | --- | --- | --- | --- | --- | --- | --- | --- |
| CCCCc1nc(NC2CCNCC2)cc(C(=O)Nc2ccccc2-c2nc3cc(COC4CCNCC4)cnc3s2)n1 [Compound 10, 2-butyl-6-(piperidin-4-ylamino)-N-(2-(6-((piperidin-4-yloxy)methyl)thiazolo[5,4-b]pyridin-2-yl)phenyl)pyrimidine-4-carboxamide] | 0.69±0.08 | > 500 | > 500 |  |  |  |  |  |  |  |  |  |  |
| COc1cc(C(=O)Nc2ccccc2-c2cn3c(CN4CCNCC4)csc3n2)cc(OC)c1OC [SRT1460] | 0.20 and 0.20 ± 0.01 | > 500 | > 500 | 1.53±0.07 and 1.53 | 1 ± 0.1 | 0.09 | 11 | 12 | 14 | 0.09 | 8.7 ± 0.8 | 0.26±0.02 | 1.48±0.04 |
